We go through 2 compounds from patent publication US6908940B2, “Imidazole compounds and their use as adenosine deaminase inhibitors” (Fujisawa Pharmaceutical Co., Ltd., priority 2000, dated 2005).

SMILES strings stand for the structures.

This assay has as its target T1, Human ADA (Homo sapiens, UniProt P00813).
T1 construct: made in house
T1 sequence (P00813 1-363): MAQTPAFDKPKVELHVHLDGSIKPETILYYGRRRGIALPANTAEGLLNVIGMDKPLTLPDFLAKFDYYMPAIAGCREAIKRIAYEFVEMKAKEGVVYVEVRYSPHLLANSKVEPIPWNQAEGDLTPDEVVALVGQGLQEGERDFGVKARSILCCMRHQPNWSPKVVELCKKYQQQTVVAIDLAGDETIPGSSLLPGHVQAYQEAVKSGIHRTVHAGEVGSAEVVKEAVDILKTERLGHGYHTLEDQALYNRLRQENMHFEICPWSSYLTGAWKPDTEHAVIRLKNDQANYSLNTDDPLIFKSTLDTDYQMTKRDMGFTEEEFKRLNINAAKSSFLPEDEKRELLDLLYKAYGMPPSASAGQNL
As to the kind of experiment: Adenosine Deaminase (ADA) Enzyme Assay. The settings on record: 50% inhibition of Vmax vs vehicle; 0.16 μg/ml ADA, 0.1 mM adenosine, phosphate buffer saline pH 7.4, room temperature, decrease in A265 for 3 minutes. In kind it is biochemical. The method, then: Adenosine Deaminase (ADA) Enzyme Assay
• 1-{(2S,3R)-2-hydroxy-5-[2-(3-(4-chlorophenyl)propoxy)-phenyl]-3-pentyl}imidazole-4-carboxamide (Example 8) • 1-[(2S,3R)-2-hydroxy-5-(7-chloro-1-naphthyl)-3-pentyl]-imidazole-4-carboxamide (Example 12) Test Method:
The reaction velocity (V) is measured by a change in absorbance at 265 nm (A265) resulting from the deamination of adenosine. Human ADA was expressed and purified from ADA-deficient bacterial strain. Reaction mixtures of a total volume of 200 μl contained 0.16 μg/ml of ADA and 0.1 mM of adenosine and test compound in 10 mM phosphate buffer saline (pH 7.4). The reaction was started by addition of ADA to a mixture of adenosine and test compound. The reaction was followed at room temperature by recording decrease in A265 for 3 minutes in SPECTRAmax 250 (Molecular Devices, USA) to automatically calculate Vmax. Inhibitory potency of test compound was expressed as IC50 value, the drug concentration required to produce 50% inhibition of Vmax in comparison to vehicle treatment.

The term IC50 denotes the concentration that inhibits the measured activity by half. A low value points to greater potency in that assay. `C[C@H](O)[C@@H](CCc1ccccc1OCCCc1ccc(Cl)cc1)n1cnc(C(N)=O)c1` [Example 8, 1-{(2S,3R)-2-hydroxy-5-[2-(3-(4-chlorophenyl)propoxy)phenyl]-3-pentyl}imidazole-4-carboxamide] registered an IC50 of less than 0.02 µM.

`C[C@H](O)[C@@H](CCc1cccc2ccc(Cl)cc12)n1cnc(C(N)=O)c1` [Example 12, 1-[(2S,3R)-2-hydroxy-5-(7-chloro-1-naphthyl)-3-pentyl]imidazole-4-carboxamide] displayed an IC50 of less than 0.02 µM.
